Row | melting point | SMILES
1 | 218 to 220 °C (dec.) | COCc1nc2c(OC)ccc(C(=O)Cc3ccncc3)c2[nH]1 [Example 4, 1-(7-Methoxy-2-methoxymethyl-3H-benzimidazol-4-yl)-2-(4-pyridyl)ethanone]
2 | 210 °C (dec.) | COCc1nc2c(OC)ccc(C(O)(Cc3ccncc3)Cc3ccncc3)c2[nH]1 [Example 5, 1,3-bis-(4-pyridyl)-2-(7-methoxy-2-methoxymethyl-3H-benzimidazol-4-yl)-propan-2-ol]
3 | 245 °C | Cc1ccc(S(=O)(=O)n2cc(C=O)c3ccc(C(=O)Nc4c(Cl)cncc4Cl)cc32)cc1 [Example 17, N-(3,5-Dichloro-pyridin-4-yl)-3-formyl-1-(toluene-4-sulphonyl)-1H-indole-6-carboxamide]
4 | 146 to 147 °C | COc1ccc(Cn2cc(C)c3ccc(C(=O)c4ccccc4)cc32)cc1 [Example 24, [1-(4-Methoxy-benzyl)-3-methyl-1H-indol-6-yl]-phenyl methanone]

Source: US6800645B1, “Substituted azabicyclic compounds” (Aventis Pharma Limited, priority 1996, dated 2004)
